Assay results published in ChEMBL document CHEMBL1124889, “Alfred Burger award address. Bioactive alkaloids. 4. Results of recent investigations with colchicine and physostigmine” (J Med Chem, 1990).

What was measured:
Cholinesterase [1] = target: T1, Cholinesterase (Homo sapiens, UniProt P06276); assay: Inhibitory activity against Butyrylcholinesterase in cortex; type: tissue-based
Cholinesterase [2] = target: T1, Cholinesterase; assay: Inhibitory activity against Butyrylcholinesterase in plasma; type: cell-free
Acetylcholinesterase [3] = target: T2, Acetylcholinesterase (Homo sapiens, UniProt P22303); assay: Inhibitory activity against Acetylcholinesterase in cortex; type: tissue-based
T2 sequence (P22303 whole entry): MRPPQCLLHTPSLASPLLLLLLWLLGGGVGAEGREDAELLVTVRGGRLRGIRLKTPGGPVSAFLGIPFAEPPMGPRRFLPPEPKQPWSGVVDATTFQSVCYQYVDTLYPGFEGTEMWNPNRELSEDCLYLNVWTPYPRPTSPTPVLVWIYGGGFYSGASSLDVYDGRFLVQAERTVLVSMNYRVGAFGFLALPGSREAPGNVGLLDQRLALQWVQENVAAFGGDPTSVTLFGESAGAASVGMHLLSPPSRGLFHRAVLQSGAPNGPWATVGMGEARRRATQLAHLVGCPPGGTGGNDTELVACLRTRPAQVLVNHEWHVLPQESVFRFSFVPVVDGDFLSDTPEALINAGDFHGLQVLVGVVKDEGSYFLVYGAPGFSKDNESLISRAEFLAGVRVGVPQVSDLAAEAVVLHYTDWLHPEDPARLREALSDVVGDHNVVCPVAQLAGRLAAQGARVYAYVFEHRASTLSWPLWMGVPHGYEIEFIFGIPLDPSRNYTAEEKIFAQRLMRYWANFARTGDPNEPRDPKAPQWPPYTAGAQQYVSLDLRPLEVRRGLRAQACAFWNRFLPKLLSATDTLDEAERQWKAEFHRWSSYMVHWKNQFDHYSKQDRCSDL

Acetylcholinesterase [4] = target: T2, Acetylcholinesterase; assay: Inhibitory activity against Acetylcholinesterase in erythrocyte
Acetylcholinesterase [5] = target: Acetylcholinesterase (Electrophorus electricus, UniProt O42275); assay: Inhibitory activity against Acetylcholinesterase in electric eel
Acetylcholinesterase (Electrophorus electricus, UniProt O42275), sequence (O42275 whole entry): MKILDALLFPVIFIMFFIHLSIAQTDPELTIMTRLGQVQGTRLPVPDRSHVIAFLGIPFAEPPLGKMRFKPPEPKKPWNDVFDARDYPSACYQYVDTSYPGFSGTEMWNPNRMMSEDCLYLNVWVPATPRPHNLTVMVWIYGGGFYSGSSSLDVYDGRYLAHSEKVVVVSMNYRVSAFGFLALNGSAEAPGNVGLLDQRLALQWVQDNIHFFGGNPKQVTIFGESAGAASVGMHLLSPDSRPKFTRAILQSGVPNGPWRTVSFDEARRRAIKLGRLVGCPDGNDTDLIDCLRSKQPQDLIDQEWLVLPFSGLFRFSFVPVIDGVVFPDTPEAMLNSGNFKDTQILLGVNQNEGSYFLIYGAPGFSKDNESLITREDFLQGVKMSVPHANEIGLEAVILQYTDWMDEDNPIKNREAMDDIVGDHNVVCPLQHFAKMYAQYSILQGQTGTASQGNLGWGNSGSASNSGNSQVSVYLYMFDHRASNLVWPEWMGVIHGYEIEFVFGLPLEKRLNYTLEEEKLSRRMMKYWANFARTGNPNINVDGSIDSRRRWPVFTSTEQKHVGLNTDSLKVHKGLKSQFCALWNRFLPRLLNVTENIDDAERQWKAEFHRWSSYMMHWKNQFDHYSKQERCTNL

T1 sequence (P06276 whole entry): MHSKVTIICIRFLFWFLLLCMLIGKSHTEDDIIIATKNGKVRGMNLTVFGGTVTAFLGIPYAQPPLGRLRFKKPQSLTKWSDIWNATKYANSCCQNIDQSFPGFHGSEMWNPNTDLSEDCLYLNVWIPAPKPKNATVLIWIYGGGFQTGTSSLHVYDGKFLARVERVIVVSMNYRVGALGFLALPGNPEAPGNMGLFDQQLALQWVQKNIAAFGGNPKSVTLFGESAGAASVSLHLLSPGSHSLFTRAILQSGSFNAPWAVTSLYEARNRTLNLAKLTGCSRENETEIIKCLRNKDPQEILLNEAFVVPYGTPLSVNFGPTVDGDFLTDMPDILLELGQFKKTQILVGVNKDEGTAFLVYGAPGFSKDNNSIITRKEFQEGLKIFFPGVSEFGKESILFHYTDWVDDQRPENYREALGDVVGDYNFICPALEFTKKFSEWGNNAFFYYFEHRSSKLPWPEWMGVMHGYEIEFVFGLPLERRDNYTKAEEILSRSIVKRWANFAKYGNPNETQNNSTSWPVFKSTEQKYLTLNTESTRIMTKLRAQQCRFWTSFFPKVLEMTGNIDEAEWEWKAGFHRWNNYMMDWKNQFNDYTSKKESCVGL

C=CCN1CC[C@@]2(C)c3cc(OC(=O)NC)ccc3N(C)[C@@H]12
IC50 (Cholinesterase [1]): 16 nM | IC50 (Cholinesterase [2]): 3 nM

CN(C)C(=O)Oc1ccc2c(c1)[C@]1(C)CCN(C)[C@@H]1N2C
IC50 (Acetylcholinesterase [3]): 310 nM | IC50 (Cholinesterase [1]): 3000 nM | IC50 (Cholinesterase [2]): 420 nM | IC50 (Acetylcholinesterase [4]): 210 nM | IC50 (Acetylcholinesterase [5]): 970 nM

CN1CC[C@@]2(C)c3cc(OC(=O)NC(C)(C)C)ccc3N(C)[C@@H]12
IC50 (Acetylcholinesterase [3]): 32000 nM | IC50 (Cholinesterase [1]): 11000 nM | IC50 (Cholinesterase [2]): 2000 nM | IC50 (Acetylcholinesterase [4]): 23000 nM | IC50 (Acetylcholinesterase [5]): > 10000 nM

CCCCCCCCNC(=O)Oc1ccc2c(c1)[C@]1(C)CCN(C)[C@@H]1N2C
IC50 (Cholinesterase [1]): 9 nM | IC50 (Cholinesterase [2]): 4 nM

COc1ccc(NC(=O)Oc2ccc3c(c2)[C@]2(C)CCN(C)[C@@H]2N3C)cc1
IC50 (Cholinesterase [1]): 230 nM | IC50 (Cholinesterase [2]): 71 nM | IC50 (Acetylcholinesterase [5]): 1700 nM

CNC(=O)Oc1ccc2c(c1)[C@]1(C)CCN(CCc3ccccc3)[C@@H]1N2C
IC50 (Acetylcholinesterase [3]): 150 nM | IC50 (Acetylcholinesterase [4]): 220 nM
